# According to ChEMBL document CHEMBL1133916, “The discovery of anthranilic acid-based MMP inhibitors. Part 2: SAR of the 5-position and P1(1) groups” (Bioorg Med Chem Lett, 2001):
# What was measured:
# [1] = biological target: T1, Interstitial collagenase (Homo sapiens) (UniProt P03956); test: Inhibition of Matrix metalloprotease-1 at 1 uM
# T1 sequence (whole entry): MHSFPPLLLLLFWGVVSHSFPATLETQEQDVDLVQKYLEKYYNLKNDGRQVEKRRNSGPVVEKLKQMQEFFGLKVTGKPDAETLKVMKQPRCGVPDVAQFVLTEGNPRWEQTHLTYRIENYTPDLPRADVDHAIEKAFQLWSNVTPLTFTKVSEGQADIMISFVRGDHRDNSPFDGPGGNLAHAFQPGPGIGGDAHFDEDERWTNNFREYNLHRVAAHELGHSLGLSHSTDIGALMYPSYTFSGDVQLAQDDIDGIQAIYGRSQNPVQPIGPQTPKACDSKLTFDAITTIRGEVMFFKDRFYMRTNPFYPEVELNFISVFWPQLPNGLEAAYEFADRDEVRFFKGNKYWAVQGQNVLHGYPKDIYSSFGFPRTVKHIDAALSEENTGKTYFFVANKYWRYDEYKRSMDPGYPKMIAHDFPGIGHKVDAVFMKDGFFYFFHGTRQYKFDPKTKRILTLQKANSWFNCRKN
# Collagenase 3 [2] = biological target: T2, Collagenase 3 (Homo sapiens, UniProt P45452); test: Inhibition of matrix metalloprotease-13; conditions: concentration not given here
# [3] = biological target: T1, Interstitial collagenase (Homo sapiens); test: Inhibition of Matrix metalloprotease-1 at 10 uM
# [4] = biological target: T3, Disintegrin and metalloproteinase domain-containing protein 17 (Homo sapiens, UniProt P78536); test: In vitro inhibition of TNF-alpha converting enzyme (TACE)
# T3 sequence (P78536 whole entry, the tested form may be a part): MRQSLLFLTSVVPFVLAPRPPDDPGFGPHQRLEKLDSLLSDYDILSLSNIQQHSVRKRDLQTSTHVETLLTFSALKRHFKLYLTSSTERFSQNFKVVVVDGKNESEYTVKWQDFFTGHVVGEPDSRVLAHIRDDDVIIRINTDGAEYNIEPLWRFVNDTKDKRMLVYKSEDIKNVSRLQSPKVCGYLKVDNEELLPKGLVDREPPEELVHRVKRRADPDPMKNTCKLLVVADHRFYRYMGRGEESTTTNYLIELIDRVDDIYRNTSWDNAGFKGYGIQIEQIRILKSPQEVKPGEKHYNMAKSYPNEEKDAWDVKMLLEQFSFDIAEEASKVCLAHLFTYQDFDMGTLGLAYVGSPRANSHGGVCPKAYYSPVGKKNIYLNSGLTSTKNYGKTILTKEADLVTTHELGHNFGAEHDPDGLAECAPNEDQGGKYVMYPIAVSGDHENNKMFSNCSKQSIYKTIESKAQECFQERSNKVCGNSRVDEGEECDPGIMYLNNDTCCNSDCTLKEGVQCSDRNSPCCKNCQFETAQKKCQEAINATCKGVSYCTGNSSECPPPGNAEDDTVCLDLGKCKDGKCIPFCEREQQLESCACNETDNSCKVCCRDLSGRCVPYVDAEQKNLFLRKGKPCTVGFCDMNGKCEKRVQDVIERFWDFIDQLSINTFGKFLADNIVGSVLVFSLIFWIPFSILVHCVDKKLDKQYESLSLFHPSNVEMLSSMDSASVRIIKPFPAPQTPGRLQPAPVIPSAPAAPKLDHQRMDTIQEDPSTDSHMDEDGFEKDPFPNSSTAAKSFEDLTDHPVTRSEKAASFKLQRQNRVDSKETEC
# [5] = biological target: T4, Matrix metalloproteinase-9 (Homo sapiens, UniProt P14780); test: Inhibition of Matrix metalloprotease-9 at 1 uM
# T4 sequence (P14780 whole entry, the tested form may be a part): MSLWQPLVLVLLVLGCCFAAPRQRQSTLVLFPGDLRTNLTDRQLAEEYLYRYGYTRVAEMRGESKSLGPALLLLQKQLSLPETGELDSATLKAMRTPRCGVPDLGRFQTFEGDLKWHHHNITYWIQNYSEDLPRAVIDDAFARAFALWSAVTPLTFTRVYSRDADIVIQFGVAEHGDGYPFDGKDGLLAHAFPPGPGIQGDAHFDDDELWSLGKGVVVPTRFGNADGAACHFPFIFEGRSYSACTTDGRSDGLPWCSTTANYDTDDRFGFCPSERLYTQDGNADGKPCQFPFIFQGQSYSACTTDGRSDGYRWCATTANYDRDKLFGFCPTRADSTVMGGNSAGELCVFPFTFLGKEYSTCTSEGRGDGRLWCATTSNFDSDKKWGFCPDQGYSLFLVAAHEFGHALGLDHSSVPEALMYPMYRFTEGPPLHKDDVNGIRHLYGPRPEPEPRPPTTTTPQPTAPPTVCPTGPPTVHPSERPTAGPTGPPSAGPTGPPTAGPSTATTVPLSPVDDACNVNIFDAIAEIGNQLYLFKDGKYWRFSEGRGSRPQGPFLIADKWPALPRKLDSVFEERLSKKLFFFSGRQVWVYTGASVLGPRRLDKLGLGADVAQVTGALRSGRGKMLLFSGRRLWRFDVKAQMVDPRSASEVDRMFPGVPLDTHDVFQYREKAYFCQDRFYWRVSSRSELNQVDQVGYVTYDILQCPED
# [6] = biological target: T3, Disintegrin and metalloproteinase domain-containing protein 17; test: Inhibition of TNF-alpha converting enzyme (TACE) at 1 uM
# [7] = biological target: T4, Matrix metalloproteinase-9; test: In vitro ability to inhibit matrix metalloprotease-9.
# Collagenase 3 [8] = biological target: T2, Collagenase 3
# Interstitial collagenase = biological target: T5, Interstitial collagenase (Homo sapiens, UniProt P03956); test: In vitro inhibition of Matrix metalloprotease-1
# T5 sequence (P03956 whole entry): T1 sequence (whole entry)
# Bos taurus = organism: Bos taurus; test: Percent inhibition of cartilage degradation at 1 uM in a bovine articular cartilage explant assay; format: functional; conditions: Cartilage tissue
# Rattus norvegicus = test: Percent inhibition of collagen degradation at an oral dose of 50 mg/kg/bid in an in vivo rat sponge-wrapped cartilage model; format: functional
IC50 [4],IC50 [7],SMILES,IC50 (Collagenase 3 [8]),IC50 (Interstitial collagenase),also measured
0.285 µM,3.45 µM,Cc1cc(Br)cc(C(=O)NO)c1N(Cc1ccccc1)S(=O)(=O)c1ccc(OCc2ccccc2)cc1,,,inhibition [3]: 18%
0.231 µM,,COc1ccc(S(=O)(=O)N(Cc2cccnc2)c2c(C)cccc2C(=O)NO)cc1,,,
0.07 µM,,COc1ccc(S(=O)(=O)N(Cc2cccnc2)c2c(C)cc(C)cc2C(=O)NO)cc1,,,
0.043 µM,,COc1ccc(S(=O)(=O)N(Cc2cccnc2)c2c(C)cc(Br)cc2C(=O)NO)cc1,,0.124 µM,
,0.007 µM,Cc1cccc(C(=O)NO)c1N(C)S(=O)(=O)c1ccc(Oc2ccncc2)cc1,,,inhibition at 1 µM (Bos taurus): 83%; inhibition [6]: 32%; inhibition in vivo at 50 mg/kg (Rattus norvegicus): 35%
,0.001 µM,COc1ccc(S(=O)(=O)N(Cc2cccnc2)c2c(C)cc(-c3cccc(C(F)(F)F)c3)cc2C(=O)NO)cc1,,,
0.023 µM,0.952 µM,Cc1cc(Br)cc(C(=O)NO)c1N(C)S(=O)(=O)c1ccc(-c2ccc(OCc3nccs3)cc2)cc1,0.661 µM,,inhibition [3]: 45%
,0.153 µM,CN(c1ccccc1C(=O)NO)S(=O)(=O)c1ccc(Oc2ccncc2)cc1,0.038 µM,,inhibition [6]: 22%; inhibition [1]: 48%
,0.004 µM,Cc1cc(C)c(N(Cc2ccccc2)S(=O)(=O)c2ccc(Oc3ccccc3)cc2)c(C(=O)NO)c1,0.006 µM,0.376 µM,inhibition [6]: 37%
0.633 µM,0.002 µM,COc1ccc(S(=O)(=O)N(Cc2cccnc2)c2c(C)cc(N(C)C)cc2C(=O)NO)cc1,0.039 µM,0.074 µM,
,0.008 µM,COc1ccc(S(=O)(=O)N(Cc2cccnc2)c2c(C(=O)NO)cc(C)cc2-c2ccco2)cc1,0.001 µM,0.018 µM,

# The remaining lines, values behind:
SMILES,IC50 [4],IC50 [7],IC50 (Collagenase 3 [8]),IC50 (Interstitial collagenase),also measured
CCCCOc1ccc(S(=O)(=O)N(Cc2ccccc2)c2c(C)cc(C)cc2C(=O)NO)cc1,,,,,inhibition [1]: 33%
Cc1cc(Br)cc(C(=O)NO)c1N(C)S(=O)(=O)c1ccc(-c2ccc(OCc3cccnc3)cc2)cc1,0.028 µM,,,,inhibition (Collagenase 3 [2]): 48%; inhibition [3]: 42%; inhibition [5]: 28%
Cc1cccc(C(=O)NO)c1N(Cc1cccnc1)S(=O)(=O)c1ccc(-c2ccc3c(c2)OCO3)cc1,,,,,inhibition [3]: 37%; inhibition [6]: 9%; inhibition [5]: 43%
COc1ccc(S(=O)(=O)N(Cc2cccnc2)c2c(C(=O)NO)cc(C)cc2-c2ccccc2)cc1,0.133 µM,0.007 µM,0.003 µM,0.103 µM,
CCN(CC)Cc1cc(C)c(N(Cc2ccccc2)S(=O)(=O)c2ccc(OC)cc2)c(C(=O)NO)c1,,,,,inhibition [6]: 44%
Cc1cc(Br)cc(C(=O)NO)c1N(C)S(=O)(=O)c1ccc(Oc2ccc(C(C)(C)C)cc2)cc1,,0.125 µM,0.044 µM,,inhibition [6]: 19%; inhibition [1]: 25%
Cc1cc(C)c(N(Cc2ccccc2)S(=O)(=O)c2ccc(OCc3ccccc3)cc2)c(C(=O)NO)c1,,,,,inhibition [1]: 25%
COc1ccc(S(=O)(=O)N(Cc2cccnc2)c2c(C)cc(-c3ccccc3)cc2C(=O)NO)cc1,,,0.004 µM,,inhibition at 1 µM (Bos taurus): 70%
COc1ccc(S(=O)(=O)N(Cc2cccnc2)[C@@H](C(=O)NO)C(C)C)cc1 [CGS-27023A],0.231 µM,,,,inhibition at 1 µM (Bos taurus): 70%; inhibition in vivo at 50 mg/kg (Rattus norvegicus): 51%
Cc1cc(C)c(N(C)S(=O)(=O)c2ccc(Sc3ccccc3)cc2)c(C(=O)NO)c1,0.727 µM,0.008 µM,0.003 µM,1.31 µM,
COc1ccc(-c2ccc(S(=O)(=O)N(Cc3cccnc3)c3c(C)cccc3C(=O)NO)cc2)cc1,,0.152 µM,0.018 µM,2.27 µM,inhibition [6]: 4%
Cc1cc(Br)cc(C(=O)NO)c1N(C)S(=O)(=O)c1ccc(-c2ccc(OCc3ccsc3)cc2)cc1,0.056 µM,0.232 µM,0.142 µM,4.64 µM,
Cc1cc(Br)cc(C(=O)NO)c1N(C)S(=O)(=O)c1ccc(-c2ccc(OCc3ccccc3)cc2)cc1,0.057 µM,0.189 µM,0.163 µM,,inhibition [3]: 57%
COc1ccc(S(=O)(=O)N(Cc2cccnc2)c2c(C)cc(-c3ccc4ccccc4c3)cc2C(=O)NO)cc1,0.194 µM,0.002 µM,0.001 µM,0.745 µM,inhibition at 1 µM (Bos taurus): 83%
